Test results: US20230146675A1, “PYRIMIDO[5,4-d]PYRIMIDINE DERIVATIVES AS ENT INHIBITORS FOR THE TREATMENT OF CANCERS, AND COMBINATION THEREOF WITH ADENOSINE RECEPTOR ANTAGONISTS” (ITEOS BELGIUM SA, priority 2020, published 2023)
pIC50: −log10 of the molar value. Where two headings read alike, the source gives them in different places.

Columns and labels:
Assay type in all cases: biochemical
[1] = target: T1, Human phosphodiesterase-10A2 (Homo sapiens, UniProt Q9Y233); assay: PDE10A2 (h) assay
T1 construct: host or cells: Sf9 cells
T1 sequence (Q9Y233 267-1055): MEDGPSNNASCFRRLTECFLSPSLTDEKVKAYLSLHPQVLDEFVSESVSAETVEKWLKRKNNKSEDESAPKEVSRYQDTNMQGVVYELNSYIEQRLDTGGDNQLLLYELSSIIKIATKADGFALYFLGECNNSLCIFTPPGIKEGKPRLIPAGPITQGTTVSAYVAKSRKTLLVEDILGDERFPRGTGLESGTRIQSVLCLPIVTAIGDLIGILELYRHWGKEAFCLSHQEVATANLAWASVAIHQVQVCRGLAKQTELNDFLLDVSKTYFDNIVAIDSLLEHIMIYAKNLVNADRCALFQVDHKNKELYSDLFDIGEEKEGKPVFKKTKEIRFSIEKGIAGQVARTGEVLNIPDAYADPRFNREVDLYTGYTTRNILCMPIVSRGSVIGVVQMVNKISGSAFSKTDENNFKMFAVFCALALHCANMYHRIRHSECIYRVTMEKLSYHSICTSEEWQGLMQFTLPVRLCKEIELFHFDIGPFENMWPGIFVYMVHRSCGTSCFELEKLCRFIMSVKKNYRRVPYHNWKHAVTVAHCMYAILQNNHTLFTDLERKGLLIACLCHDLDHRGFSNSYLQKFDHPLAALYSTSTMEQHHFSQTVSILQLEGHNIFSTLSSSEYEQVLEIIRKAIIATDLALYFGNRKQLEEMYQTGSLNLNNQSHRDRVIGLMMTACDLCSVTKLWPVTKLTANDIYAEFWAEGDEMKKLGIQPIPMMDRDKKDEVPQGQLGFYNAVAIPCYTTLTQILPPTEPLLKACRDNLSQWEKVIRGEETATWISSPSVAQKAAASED
Protocol: (§1) The test compound (compound 72), reference compound or water (control) were added to a buffer containing 40 mM Tris/HCl (pH 7.4) and 8 mM MgCl2, 180 nM cAMP and 0.1 μCi [3H]cAMP. Thereafter, the reaction was initiated by addition of the enzyme (about 0.8 U) and the mixture was incubated for 20 min at 22° C. For basal control measurements, the enzyme was omitted from the reaction mixture. Following incubation SPA beads were added. After 30 min at 22° C. under shaking, the amount of [3H]5′AMP was quantified with a scintillation counter (MicroBeta, Perkin Elmer). The results were expressed as a percent inhibition of the control enzyme activity. The standard inhibitory reference compound was trequinsin, which was tested in each experiment at several concentrations to obtain an inhibition curve from which its IC50 value was calculated. • Human phosphodiesterase-10A2 quantified by measuring the formation of 5′AMP from cAMP using a human recombinant enzyme expressed in Sf9 cells.
(§2) The test compound (compound 72), reference compound or water (control) were added to a buffer containing 40 mM Tris/HCl (pH 7.4) and 8 mM MgCl2, 180 nM cAMP and 0.1 μCi [3H]cAMP. […] After 30 min at 22° C. under shaking, the amount of [3H]5′AMP was quantified with a scintillation counter (MicroBeta, Perkin Elmer). The results were expressed as a percent inhibition of the control enzyme activity. […]

[2] = target: T2, Human phosphodiesterase-5 (Homo sapiens, UniProt O76074); assay: PDE5 (h) (non-selective) assay
T2 construct: using an enzyme isolated from human platelets at Eurofins-Cerep; tissue Eurofins-Cerep; host or cells: human platelets
Protocol: The test compound (compound 72), reference compound or water (control) were added to a buffer containing 40 mM Tris/HCl (pH 7.4), 8 mM MgCl2 0.21% BSA, 0.5 μg/ml calmoduline and 0.5 mM CaCl2), 1.125 μM cGMP and 0.027 μCi [3H]cGMP. Thereafter, the reaction was initiated by addition of the enzyme (about 0.2 U) and the mixture was incubated for 20 min at 22° C. For basal control measurements, the enzyme was omitted from the reaction mixture. Following incubation SPA beads were added. After 30 min at 22° C. under shaking, the amount of [3H]5′GMP was quantified with a scintillation counter (MicroBeta, Perkin Elmer). The results were expressed as a percent inhibition of the control enzyme activity. The standard inhibitory reference compound was Nitrendipine, which was tested in each experiment at several concentrations to obtain an inhibition curve from which its IC50 value was calculated. • Human phosphodiesterase-5 quantified by measuring the formation of 5′GMP from cGMP using an enzyme isolated from human platelets at Eurofins-Cerep.
The test compound (compound 72), reference compound or water (control) were added to a buffer containing 40 mM Tris/HCl (pH 7.8), 3 mM MgCl2, 1.4 mM DTT, 0.21% BSA, 200 mM NH4Cl, 1 μM cGMP and 0.1 μCi [3H]cGMP. […] After 20 min at 22° C. under shaking, the amount of [3H]5′GMP was quantified with a scintillation counter (MicroBeta, Perkin Elmer). […]

[3] = target: T3, Human phosphodiesterase-2A1 (Homo sapiens, UniProt O00408); assay: PDE2A1 (h) assay
T3 construct: host or cells: Sf9 cells
T3 sequence (O00408 1-920 isoform O00408-2): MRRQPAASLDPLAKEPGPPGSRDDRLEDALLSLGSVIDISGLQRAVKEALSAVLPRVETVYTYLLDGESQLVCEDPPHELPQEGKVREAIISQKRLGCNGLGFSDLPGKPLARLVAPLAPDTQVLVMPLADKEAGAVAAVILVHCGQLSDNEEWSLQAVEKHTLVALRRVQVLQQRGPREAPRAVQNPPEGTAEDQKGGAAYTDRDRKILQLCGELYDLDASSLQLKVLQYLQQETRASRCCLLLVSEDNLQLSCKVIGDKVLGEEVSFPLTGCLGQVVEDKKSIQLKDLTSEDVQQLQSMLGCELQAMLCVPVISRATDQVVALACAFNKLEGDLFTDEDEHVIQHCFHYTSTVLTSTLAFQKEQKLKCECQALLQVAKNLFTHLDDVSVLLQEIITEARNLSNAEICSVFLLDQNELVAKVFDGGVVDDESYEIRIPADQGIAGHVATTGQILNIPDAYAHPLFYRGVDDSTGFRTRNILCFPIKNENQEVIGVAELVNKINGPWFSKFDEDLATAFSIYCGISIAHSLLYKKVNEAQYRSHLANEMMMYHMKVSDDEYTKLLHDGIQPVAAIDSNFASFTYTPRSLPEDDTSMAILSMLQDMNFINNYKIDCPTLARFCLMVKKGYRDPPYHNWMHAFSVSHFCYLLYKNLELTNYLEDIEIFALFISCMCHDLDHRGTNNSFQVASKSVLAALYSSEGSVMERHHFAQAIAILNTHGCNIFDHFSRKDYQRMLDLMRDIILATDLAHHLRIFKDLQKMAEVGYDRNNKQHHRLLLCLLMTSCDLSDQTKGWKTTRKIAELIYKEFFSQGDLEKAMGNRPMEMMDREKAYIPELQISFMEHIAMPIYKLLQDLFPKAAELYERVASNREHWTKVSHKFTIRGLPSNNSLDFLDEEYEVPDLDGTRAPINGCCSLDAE
Protocol: The test compound (compound 72), reference compound or water (control) were added to a buffer containing 40 mM Tris/HCl (pH 7.8), 3 mM MgCl2, 1.4 mM DTT, 0.21% BSA, 200 mM NH4Cl, 1 μM cGMP and 0.1 μCi [3H]cGMP. Thereafter, the reaction was initiated by addition of the enzyme (final amount depending on the efficiency of the isolation) and the mixture was incubated for 60 min at 22° C. For basal control measurements, the enzyme was omitted from the reaction mixture. Following incubation SPA beads were added. After 20 min at 22° C. under shaking, the amount of [3H]5′GMP was quantified with a scintillation counter (MicroBeta, Perkin Elmer). The results were expressed as a percent inhibition of the control enzyme activity.
The test compound (compound 72), reference compound or water (control) were added to a buffer containing 40 mM Tris/HCl (pH 7.4), 8 mM MgCl2 and 1.7 mM EGTA/NaOH, 1.8 μM cAMP and 1 μCi [3H]cAMP. Thereafter, the reaction was initiated by addition of the enzyme (about 2 ng) and the mixture was incubated for 15 min at 22° C. For basal control measurements, the enzyme was omitted from the reaction mixture. Following incubation SPA beads were added. After 30 min at 22° C. under shaking, the amount of [3H]5′AMP was quantified with a scintillation counter (MicroBeta, Perkin Elmer). The results were expressed as a percent inhibition of the control enzyme activity. […]

[4] = target: T4, Human phosphodiesterase-3A (Homo sapiens, UniProt Q14432); assay: PDE3A (h) assay
T4 construct: host or cells: Sf9 cells
T4 sequence (Q14432 whole entry): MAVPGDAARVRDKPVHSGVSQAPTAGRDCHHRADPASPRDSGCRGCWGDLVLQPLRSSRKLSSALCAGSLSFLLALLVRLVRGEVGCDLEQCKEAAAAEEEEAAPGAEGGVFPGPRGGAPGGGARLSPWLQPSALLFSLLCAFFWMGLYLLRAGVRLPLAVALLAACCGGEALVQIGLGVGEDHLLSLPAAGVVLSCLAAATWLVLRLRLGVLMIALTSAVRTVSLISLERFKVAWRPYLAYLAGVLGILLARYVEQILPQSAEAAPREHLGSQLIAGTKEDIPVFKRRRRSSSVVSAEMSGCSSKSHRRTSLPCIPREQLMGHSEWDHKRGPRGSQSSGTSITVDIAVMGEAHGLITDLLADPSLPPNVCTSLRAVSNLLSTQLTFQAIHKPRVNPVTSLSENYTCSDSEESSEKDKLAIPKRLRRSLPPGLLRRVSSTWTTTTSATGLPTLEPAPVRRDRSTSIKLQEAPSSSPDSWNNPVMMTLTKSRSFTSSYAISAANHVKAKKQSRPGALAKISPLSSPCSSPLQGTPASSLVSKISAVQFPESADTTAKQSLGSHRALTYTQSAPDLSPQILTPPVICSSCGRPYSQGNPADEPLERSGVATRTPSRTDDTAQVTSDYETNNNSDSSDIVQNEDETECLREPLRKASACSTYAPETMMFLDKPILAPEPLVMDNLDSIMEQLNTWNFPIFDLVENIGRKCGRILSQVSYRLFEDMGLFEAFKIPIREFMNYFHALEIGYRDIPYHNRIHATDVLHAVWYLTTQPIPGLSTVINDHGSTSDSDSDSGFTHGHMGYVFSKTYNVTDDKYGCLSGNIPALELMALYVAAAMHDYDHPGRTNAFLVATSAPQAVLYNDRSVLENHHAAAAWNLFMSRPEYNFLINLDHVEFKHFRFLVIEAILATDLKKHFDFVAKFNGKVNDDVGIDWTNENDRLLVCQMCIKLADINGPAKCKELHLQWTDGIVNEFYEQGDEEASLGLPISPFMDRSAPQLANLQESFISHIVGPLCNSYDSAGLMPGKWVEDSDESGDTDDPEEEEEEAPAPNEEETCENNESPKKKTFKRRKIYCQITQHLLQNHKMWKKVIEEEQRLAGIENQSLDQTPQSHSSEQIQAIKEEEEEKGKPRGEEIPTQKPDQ
Protocol: as §1, with “papaverine,” for “trequinsin,”, “phosphodiesterase-3A” for “phosphodiesterase-10A2”, “cells” for “cells.”
as §2, with “450” for “180”, “0.25” for “0.1”, “(Topcount, Packard).” for “(MicroBeta, Perkin Elmer).”

## COCCN(CCOC)c1nc(N2CCN(C)C(=O)C2)c2nc(N(CCOC)CCOC)nc(N3CCC(OC)CC3)c2n1 [Compound 72, 4-(2,6-bis(bis(2-methoxyethyl)amino)-8-(4-methoxypiperidin-1-yl)pyrimido[5,4-d]pyrimidin-4-yl)-1-methylpiperazin-2-one]
[1]
  pIC50: 5.00 to 6.00
[2]; read-out: PDE5 (h) (non-selective) IC50
  pIC50: 5.00 to 6.00
[2]; read-out: PDE5 IC50
  pIC50: 5.97
[3]
  pIC50: < 5.00
[4]
  pIC50: < 5.00
